Where two headings read alike, the source gives them in different places.
Legend:
PIKFYVE [1] = biological target: T1, PIKFYVE (Homo sapiens (Human), UniProt Q9Y2I7); test: ADP-GLO Kinase Assay, PIKFYVE inhibitory activity; type: biochemical; settings: substrate PI3P 10,000 nM
Protocol: (§1) Briefly, 4× compound solution and 4×ATP solution are prepared with assay buffer (50 mM MOPS, 1 mM DTT, pH7.2). 4× Substrate solution and 4× kinase/Metal solution are prepared with MOPS based buffer containing individual kinase specific additives. Then, […] of 4× compound solution, 5 μL of 4× Substrate solution, 5 μL of 4×ATP solution, and 5 μL of 4× kinase/Metal solution are mixed and incubated in a well of polystyrene 384 well black microplate for 1 hour at room temperature. Next, 20 μL of ADP-Glo™ Reagent (Promega) is added to the well, and incubated for over 40 minutes. 40 μL of Kinase Detection Reagent (Promega) is added to the well, and incubated for over 40 minutes. The kinase reaction is evaluated by the endpoint luminescence of the well.
For measurement of PIKFYVE activity, the substrate is PI3P at 10,000 nM concentration, using AG-182 as a positive control. The metal used is magnesium at 5 mM concentration.

PIKFYVE [2] = biological target: T1, PIKFYVE; test: KINOMEScan Kinase Assay, PIKFYVE binding; settings: for inhibition at 0.05 µM: read-out: % Inhib. (50 nM); for % Inhib. (50 nM): 50 nM compound
in vitro = settings: hamster
[3] = system: SARS-CoV-2 spike pseudovirus in BHK21/hACE2 cells; test: microbe, parasite or virus in culture; type: cell-based; settings: Severe acute respiratory syndrome coronavirus 2, BHK-21
[4] = Cytotoxicity (CC50) in Influenza A assay; type: cell-based; settings: dog; Influenza A IFA Assay; MDCK cells
Protocol: Influenza A IFA: Test compounds are solubilized in DMSO to prepare 20 mg/mL stock solutions. Compounds are then serially diluted using eight half-log dilutions in test media so that the starting (high) test concentration is 100 μg/mL. Each dilution is added to 5 wells of a 96-well plate with 80-100% confluent MDCK cells. Three wells of each dilution are infected with virus (strain influenza A strain California/07/09 (H1N1) pdm09), and two wells remain uninfected as toxicity controls. As virus controls, six wells are infected but untreated, and as cell controls, six wells are uninfected and untreated. Each virus is prepared to achieve an MOI (multiplicity of infection) of 0.001. A positive control compound is tested in parallel. Plates are incubated at 37° C. under 5% CO2 atmosphere. On day 3 post-infection (once untreated virus control cells reached maximum cytopathic effect, CPE), plates are stained with neutral red dye for 2 hours. Supernatant dye is removed and the wells are rinsed with PBS. The incorporated dye is extracted using 50:50 Sorensen citrate buffer/ethanol for at least 30 minutes, and the optical density is read at […] on a spectrophotometer. […] The selectivity index (SI) is calculated as CC50 divided by EC50. […]

SARS-CoV-2 in Vero cells = test: SARS-CoV-2 immunofluorescence assay (IFA); type: cell-based; settings: Severe acute respiratory syndrome coronavirus 2, SARS-CoV2 IFA Assay
[5] = system: influenza A strain California/07/09 (H1N1) pdm09 in MDCK cells; test: Influenza A IFA assay (CPE inhibition, neutral red); type: cell-based; settings: Influenza A virus
[6] = Cytotoxicity (CC50) in SARS-CoV-2 IFA; type: cell-based; settings: African green monkey; SARS-CoV2 IFA Assay; Vero cells
Protocol: SARS-CoV-2 IFA: In 384-well plates, Vero cells re seeded at an appropriate density and cultured at 37° C. and 5% CO2. Serially diluted (10 concentrations, in duplicates) test/reference compounds are added. Then the cells are infected with virus. The resulting cultures are incubated for an additional 1 day. The cells are then fixed and analyzed by immunofluorescence. EC50 and CC50 values are calculated with GraphPad Prism software.

[7] = system: PIK3CA, PIP4K2A, PIP4K2B, PIP4K1A, PIP4K1B, PIP4K1C, PIP5KL1; test: Comparative Kinase Assays (selectivity versus other lipid kinases); type: biochemical
Protocol: as §1
To determine whether the compounds are selective, the assay is repeated using appropriate substrates for different test enzymes:
The compounds of Examples 1, 3 and 6 are tested against these enzymes: […]

[8] = system: JJN3 (multiple myeloma) cells; test: Anti-proliferative assay (CellTiter-Glo), JJN3; type: cell-based; settings: Homo sapiens, JJN-3, 144 h, six days incubation
Protocol: (§2) Selected compounds are evaluated for their anti-proliferative activity against human cutaneous T-cell lymphoma and multiple myeloma cell lines.
(§3) HuT-78 (T cell lymphoma) cells or JJN3 (multiple myeloma) cells are cultured in RPMI-1640 with 10% FBS and 1% penicillin/streptomycin. 45 μL suspensions of cells are transferred to the wells of 384-well plate for a density of 1,000 cells per well. The plates are incubated overnight at 37° C. under 5% CO2 atmosphere. Test compounds are dissolved in 100% DMSO at a 2 mM concentration, then diluted 20× in assay medium for to provide a 5% DMSO concentration and 100 μM compound concentration. 5 μL of this compound solution is added to the 45 μL cell suspension in the assay plate for a top plate concentration of 10 μM and 0.5% DMSO concentration. For positive controls, 10 μM APY0201 is added instead of the compound solution. After spinning at 1000 rpm for 1 minutes, the cell plate is placed in the incubator […] at 37° C. under 5% CO2 atmosphere. After incubation for six days, the cell plate is equilibrated to room temperature for 20 minutes. 25 μL of CellTiter-Glo (CTG) reagent (Promega Cat No. G7572) is added to each well, and the plate is shaken for 15 minutes at 300 rpm. Luminescence is read on an Envision plate reader.

[9] = system: HuT-78 (T cell lymphoma) cells; test: Anti-proliferative assay (CellTiter-Glo), HuT-78; type: cell-based; settings: Homo sapiens, HuT78, 144 h, six days incubation
Protocol: as §2, §3

T1 sequence (Q9Y2I7 whole entry): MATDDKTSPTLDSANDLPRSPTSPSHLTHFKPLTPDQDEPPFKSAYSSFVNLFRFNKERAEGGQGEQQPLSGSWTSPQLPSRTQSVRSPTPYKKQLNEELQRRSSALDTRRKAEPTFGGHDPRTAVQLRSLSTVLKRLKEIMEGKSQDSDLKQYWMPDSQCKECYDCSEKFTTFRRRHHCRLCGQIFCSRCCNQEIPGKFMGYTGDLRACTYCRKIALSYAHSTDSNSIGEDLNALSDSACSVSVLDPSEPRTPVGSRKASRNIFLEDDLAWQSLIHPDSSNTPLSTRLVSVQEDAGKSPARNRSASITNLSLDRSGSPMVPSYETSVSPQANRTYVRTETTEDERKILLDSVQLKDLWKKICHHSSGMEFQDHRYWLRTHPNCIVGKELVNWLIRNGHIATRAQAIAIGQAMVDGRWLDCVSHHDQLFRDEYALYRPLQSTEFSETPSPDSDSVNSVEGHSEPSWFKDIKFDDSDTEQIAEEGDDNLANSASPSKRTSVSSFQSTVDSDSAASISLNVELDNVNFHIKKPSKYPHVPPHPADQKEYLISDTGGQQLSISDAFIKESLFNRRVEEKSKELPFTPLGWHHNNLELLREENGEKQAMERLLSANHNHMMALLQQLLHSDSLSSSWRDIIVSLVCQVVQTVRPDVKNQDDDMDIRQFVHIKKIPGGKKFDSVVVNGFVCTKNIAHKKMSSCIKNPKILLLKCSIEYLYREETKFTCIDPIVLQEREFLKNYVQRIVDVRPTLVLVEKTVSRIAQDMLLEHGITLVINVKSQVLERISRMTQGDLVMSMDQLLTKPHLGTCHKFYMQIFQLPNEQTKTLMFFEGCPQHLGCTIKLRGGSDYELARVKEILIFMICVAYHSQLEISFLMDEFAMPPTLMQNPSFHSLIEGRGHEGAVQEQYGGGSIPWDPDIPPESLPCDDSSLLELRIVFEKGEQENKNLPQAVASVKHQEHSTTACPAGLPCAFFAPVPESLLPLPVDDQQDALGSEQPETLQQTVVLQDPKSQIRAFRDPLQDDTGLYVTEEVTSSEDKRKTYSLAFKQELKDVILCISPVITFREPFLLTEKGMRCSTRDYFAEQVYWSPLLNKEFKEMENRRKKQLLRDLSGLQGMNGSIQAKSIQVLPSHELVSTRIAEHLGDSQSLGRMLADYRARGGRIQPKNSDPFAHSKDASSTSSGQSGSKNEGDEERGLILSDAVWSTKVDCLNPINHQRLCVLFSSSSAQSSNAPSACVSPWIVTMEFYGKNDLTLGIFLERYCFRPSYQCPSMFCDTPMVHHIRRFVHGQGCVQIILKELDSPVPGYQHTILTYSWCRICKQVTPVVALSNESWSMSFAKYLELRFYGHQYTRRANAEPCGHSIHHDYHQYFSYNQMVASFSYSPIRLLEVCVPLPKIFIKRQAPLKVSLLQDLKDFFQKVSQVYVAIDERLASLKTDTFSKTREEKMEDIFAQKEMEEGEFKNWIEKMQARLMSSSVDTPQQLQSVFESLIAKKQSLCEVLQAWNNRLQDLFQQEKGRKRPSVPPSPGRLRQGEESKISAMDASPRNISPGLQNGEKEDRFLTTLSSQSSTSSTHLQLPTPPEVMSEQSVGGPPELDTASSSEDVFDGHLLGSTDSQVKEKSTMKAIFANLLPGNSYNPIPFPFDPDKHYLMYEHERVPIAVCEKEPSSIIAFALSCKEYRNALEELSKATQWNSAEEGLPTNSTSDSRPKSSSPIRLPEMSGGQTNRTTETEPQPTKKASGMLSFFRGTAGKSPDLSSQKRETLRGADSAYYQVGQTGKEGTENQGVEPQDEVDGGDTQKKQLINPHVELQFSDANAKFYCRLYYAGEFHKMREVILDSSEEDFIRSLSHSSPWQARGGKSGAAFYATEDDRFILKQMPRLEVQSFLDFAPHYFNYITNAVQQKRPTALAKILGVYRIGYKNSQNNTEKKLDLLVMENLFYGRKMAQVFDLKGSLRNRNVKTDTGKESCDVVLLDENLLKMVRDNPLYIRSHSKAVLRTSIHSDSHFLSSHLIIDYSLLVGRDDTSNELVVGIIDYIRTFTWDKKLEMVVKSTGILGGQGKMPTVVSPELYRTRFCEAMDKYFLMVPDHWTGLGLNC

Compound: FC(F)(F)c1ccc(-c2ccn(-c3cc(N4CCOCC4)n4nc(-c5ccncc5)cc4n3)n2)cc1 [Ex. 10]
- IC50 (PIKFYVE [1]): > 1000 nM
- inhibition at 0.05 µM (PIKFYVE [2]): < 50%

Compound: CC(C)(C)c1ccn(-c2cc(N3CCOCC3)n3nc(-c4ccncc4)cc3n2)n1 [Ex. 5]
- IC50 (PIKFYVE [1]): > 1000 nM
- inhibition at 0.05 µM (PIKFYVE [2]): < 50%

Compound: Cc1cccc(-c2ccn(-c3cc(N4CCOCC4)n4nc(-c5ccncc5)cc4n3)n2)c1 [Ex. 17]
- Kd (PIKFYVE [2]; KINOMEScan Kinase Assay): < 1 nM

Compound: [O-][n+]1ccc(-c2cc3nc(-n4ccc(-c5cccc(Br)c5)n4)cc(N4CCOCC4)n3n2)cc1 [Ex. 18, 4-(5-(3-(3-bromophenyl)-1H-pyrazol-1-yl)-7-morpholinopyrazolo[1,5-a]pyrimidin-2-yl)pyridine 1-oxide]
- Kd (PIKFYVE [2]): < 1 nM

Compound: Cc1cccc(-c2ccn(-c3cc(N4CCOCC4)n4nc(C5=CCNCC5)cc4n3)n2)c1 [Ex. 28, 4-(2-(1,2,3,6-tetrahydropyridin-4-yl)-5-(3-(m-tolyl)-1H-pyrazol-1-yl)pyrazolo[1,5-a]pyrimidin-7-yl)morpholine]
- Kd (PIKFYVE [2]): 1 to 5 nM

Compound: Fc1ccccc1-c1ccn(-c2cc(N3CCOCC3)n3nc(-c4ccncc4)cc3n2)n1 [Ex. 8]
- IC50 (PIKFYVE [1]): < 50 nM
- inhibition at 0.05 µM (PIKFYVE [2]): 50 to 80%

Compound: COc1cccc(-c2ccn(-c3cc(N4CCO[C@@H](C)C4)n4nc(-c5ccncc5)cc4n3)n2)c1 [Ex. 12]
- % Inhib. (50 nM) (PIKFYVE [2]; KINOMEScan Kinase Assay): +++ (>80%-100%)

Compound: N#Cc1cccc(-c2ccn(-c3cc(N4CCOCC4)n4nc(-c5ccncc5)cc4n3)n2)c1 [Ex. 4]
- IC50 (PIKFYVE [1]): < 50 nM
- inhibition at 0.05 µM (PIKFYVE [2]): 50 to 80%

Compound: COc1cccc(-c2ccn(-c3cc(N4CCOCC4)n4nc(-c5ccncc5)cc4n3)n2)c1 [Ex. 15]
- Kd (PIKFYVE [2]; KINOMEScan Kinase Assay): 1 to 5 nM

Compound: COc1cccc(-c2ccn(-c3cc(N4CCOC[C@H]4C)n4nc(-c5ccncc5)cc4n3)n2)c1 [Ex. 14]
- Kd (PIKFYVE [2]; KINOMEScan Kinase Assay): 5 to 10 nM

Compound: Cc1cccc(-c2ccn(-c3cc(N4CCOCC4)n4nc(C5=CC[N+](C)(C)CC5)cc4n3)n2)c1 [Ex. 29, 1,1-dimethyl-4-(7-morpholino-5-(3-(m-tolyl)-1H-pyrazol-1-yl)pyrazolo[1,5-a]pyrimidin-2-yl)-1,2,3,6-tetrahydropyridin-1-ium]
- % Inhib. (50 nM) (PIKFYVE [2]; KINOMEScan Kinase Assay): +++ (>80%-100%)

Compound: Fc1cccc(-c2ccn(-c3cc(N4CCOCC4)n4nc(-c5ccncc5)cc4n3)n2)c1 [Ex. 2]
- IC50 (PIKFYVE [1]): < 50 nM
- inhibition at 0.05 µM (PIKFYVE [2]): 50 to 80%

Compound: Cc1cccc(/C=N/Nc2cc(N3CCOCC3)nc(OCCc3ccccn3)n2)c1 [Apilimod, reference compound]
- CC50 (in vitro): 8000 nM
- EC50 [3]: < 10 nM

Compound: C=Cc1cc2nc(-n3ccc(-c4cccc(C)c4)n3)cc(N3CCOCC3)n2n1 [Ex. 27, 4-(5-(3-(m-tolyl)-1H-pyrazol-1-yl)-2-vinylpyrazolo[1,5-a]pyrimidin-7-yl)morpholine]
- inhibition at 0.05 µM (PIKFYVE [2]): 80 to 100%

Compound: Cc1cccc(-c2ccn(-c3cc(N4CCOCC4)n4nc(-c5ccnnc5)cc4n3)n2)c1 [Ex. 25, 4-(2-(pyridazin-4-yl)-5-(3-(m-tolyl)-1H-pyrazol-1-yl)pyrazolo[1,5-a]pyrimidin-7-yl)morpholine]
- Kd (PIKFYVE [2]): < 1 nM

Compound: Cc1cccc(-c2ccn(-c3cc(N4CCOCC4)n4nc(Br)cc4n3)n2)c1 [Ex. 24, 4-(2-bromo-5-(3-(m-tolyl)-1H-pyrazol-1-yl)pyrazolo[1,5-a]pyrimidin-7-yl)morpholine]
- Kd (PIKFYVE [2]): 1 to 5 nM

Compound: Brc1cccc(-c2ccn(-c3cc(N4CCOCC4)n4nc(-c5ccncc5)cc4n3)n2)c1 [Ex. 3]
- CC50 [4]: > 20000 nM
- CC50 (in vitro): > 10000 nM
- EC50 [3]: < 10 nM
- inhibition at 0.05 µM (PIKFYVE [2]): 80 to 100%
- EC50 (SARS-CoV-2 in Vero cells): 1000 to 5000 nM
- EC50 [5]: 5000 to 10000 nM
- CC50 at 1 day [6]: > 20000 nM

Compound: Fc1ccc(-c2ccn(-c3cc(N4CCOCC4)n4nc(-c5ccncc5)cc4n3)n2)cc1 [Ex. 9]
- IC50 (PIKFYVE [1]): < 50 nM
- inhibition at 0.05 µM (PIKFYVE [2]): 50 to 80%

Compound: 4-(2-(pyridin-4-yl)-5-(3-(3-(trifluoromethyl)phenyl)-1H-pyrazol-1-yl)pyrazolo[1,5-a]pyrimidin-7-yl)morpholine [Ex. 21]
- % Inhib. (50 nM) (PIKFYVE [2]; KINOMEScan Kinase Assay): ++ (>50%-80%)

Compound: Cc1cccc(-c2ccn(-c3cc(N4CCOCC4)n4nc(-c5ccncc5)cc4n3)n2)c1 [Ex. 1]
- Fold Selectivity for PIKFYVE [7]: >100-fold
- CC50 [4]: > 20000 nM
- CC50 (in vitro): 5000 to 10000 nM
- IC50 (PIKFYVE [1]): < 50 nM
- EC50 [3]: < 10 nM
- IC50 [8]: < 100 nM
- Kd (PIKFYVE [2]): < 1 nM
- EC50 (SARS-CoV-2 in Vero cells): 100 to 1000 nM
- IC50 [9]: 100 to 1000 nM
- EC50 [5]: 1000 to 5000 nM
- CC50 at 1 day [6]: > 20000 nM

Compound: Cc1ccccc1-c1ccn(-c2cc(N3CCOCC3)n3nc(-c4ccncc4)cc3n2)n1 [Ex. 7]
- IC50 (PIKFYVE [1]): 50 to 1000 nM
- inhibition at 0.05 µM (PIKFYVE [2]): < 50%

Compound: CCOc1cccc(-c2ccn(-c3cc(N4CCOCC4)n4nc(-c5ccncc5)cc4n3)n2)c1 [Ex. 23, 4-(5-(3-(3-ethoxyphenyl)-1H-pyrazol-1-yl)-2-(pyridin-4-yl)pyrazolo[1,5-a]pyrimidin-7-yl)morpholine]
- inhibition at 0.05 µM (PIKFYVE [2]): < 50%

Compound: COc1cccc(-c2ccn(-c3cc(N4CCO[C@H](C)C4)n4nc(-c5ccncc5)cc4n3)n2)c1 [Ex. 11]
- Kd (PIKFYVE [2]; KINOMEScan Kinase Assay): 5 to 10 nM

Compound: COc1cccc(-c2ccn(-c3cc(N4CCOC[C@@H]4C)n4nc(-c5ccncc5)cc4n3)n2)c1 [Ex. 13]
- % Inhib. (50 nM) (PIKFYVE [2]; KINOMEScan Kinase Assay): +++ (>80%-100%)

Compound: CCN(CC)CCCC(C)Nc1ccnc2cc(Cl)ccc12 (centres unmarked) [Chloroquine, chloroquine, reference compound]
- CC50 (in vitro): 35000 nM
- EC50 [3]: 6000 nM

Compound: FC(F)(F)Oc1cccc(-c2ccn(-c3cc(N4CCOCC4)n4nc(-c5ccncc5)cc4n3)n2)c1 [Ex. 22, 4-(2-(pyridin-4-yl)-5-(3-(3-(trifluoromethoxy)phenyl)-1H-pyrazol-1-yl)pyrazolo[1,5-a]pyrimidin-7-yl)morpholine]
- inhibition at 0.05 µM (PIKFYVE [2]): < 50%

Compound: COc1cccc(-c2ccn(-c3cc(N4CCOCC4)n4nc(-c5ccncc5)cc4n3)n2)c1 [Ex. 6]
- Fold Selectivity for PIKFYVE [7]: >200-fold
- CC50 (in vitro): 5000 to 10000 nM
- IC50 (PIKFYVE [1]): < 50 nM
- EC50 [3]: < 10 nM
- IC50 [8]: < 100 nM
- Kd (PIKFYVE [2]): < 1 nM
- IC50 [9]: 100 to 1000 nM

Compound: Cc1cccc(-c2ccn(-c3cc(N4CCOCC4)n4nc(C5=CCN(C(=O)OC(C)(C)C)CC5)cc4n3)n2)c1 [Ex. 26, tert-butyl4-(7-morpholino-5-(3-(m-tolyl)-1H-pyrazol-1-yl)pyrazolo[1,5-a]pyrimidin-2-yl)-3,6-dihydropyridine-1(2H)-carboxylate]
- inhibition at 0.05 µM (PIKFYVE [2]): 80 to 100%

— US20240018151A1, “NOVEL INHIBITORS OF PIKFYVE AND METHODS USING SAME” (priority 2020, published 2024)
